This test concerns the target Genome polyprotein (Hepatitis C virus genotype 1a (isolate H77), UniProt P27958). In words: Enzyme Inhibition Assay. The procedure:
NS3/4A protease was preincubated with increasing concentration of drugs in protease reaction buffer for 1 hour. Inhibition assays were performed in a reaction volume of 60μL. The reaction was initiated by the rapid injection of 5μL of HCV NS3/4A protease substrate to a final concentration of 200nM.

Genome polyprotein, sequence (P27958 1027-1657 limits assumed): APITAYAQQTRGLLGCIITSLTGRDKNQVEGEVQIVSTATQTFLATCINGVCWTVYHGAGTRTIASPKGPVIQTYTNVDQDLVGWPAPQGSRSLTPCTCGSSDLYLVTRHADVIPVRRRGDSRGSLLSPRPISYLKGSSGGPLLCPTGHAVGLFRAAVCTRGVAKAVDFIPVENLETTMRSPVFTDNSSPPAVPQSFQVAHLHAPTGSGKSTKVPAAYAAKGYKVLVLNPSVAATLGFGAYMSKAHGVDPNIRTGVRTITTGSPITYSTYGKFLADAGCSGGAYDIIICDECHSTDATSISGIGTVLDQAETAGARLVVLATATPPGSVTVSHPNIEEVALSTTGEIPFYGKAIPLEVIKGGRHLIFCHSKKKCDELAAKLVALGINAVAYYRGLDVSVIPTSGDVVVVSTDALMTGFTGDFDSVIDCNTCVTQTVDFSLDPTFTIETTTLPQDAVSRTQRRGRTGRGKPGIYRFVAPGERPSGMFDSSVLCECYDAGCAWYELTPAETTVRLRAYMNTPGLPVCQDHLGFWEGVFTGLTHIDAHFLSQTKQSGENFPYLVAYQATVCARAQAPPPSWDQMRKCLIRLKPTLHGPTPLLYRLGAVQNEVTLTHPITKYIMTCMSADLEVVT
Genome polyprotein, sequence (P27958 1658-1711 limits assumed): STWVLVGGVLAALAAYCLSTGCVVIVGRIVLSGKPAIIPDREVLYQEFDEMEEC

In the case of `C=C[C@@H]1C[C@]1(NC(=O)C1C[C@@H]2CN1C(=O)[C@H](C(C)(C)C)NC(=O)OCC(C)(C)CCCCc1cccc3c1CN(C3)C(=O)O2)C(=O)NS(=O)(=O)C1CC1` (stereo partly drawn) [Dan-mcP2P4], the affinity, expressed as Ki, was 0.22 nM. `C=C[C@@H]1C[C@]1(NC(=O)[C@@H]1CC2CN1C(=O)[C@H](C(C)(C)C)NC(=O)O[C@@H]1C[C@H]1CCCCCc1nc3ccc(OC)cc3nc1O2)C(=O)NS(=O)(=O)C1CC1` (stereo partly drawn) [MK-5172] yielded a Ki of 0.06 nM.

`CC[C@@H]1C[C@]1(NC(=O)[C@@H]1C[C@@H]2CN1C(=O)[C@H](C(C)(C)C)NC(=O)OCC(C)(C)CCCCc1cccc3c1CN(C3)C(=O)O2)C(=O)NS(=O)(=O)C1CC1` [Vaniprevir] displayed a Ki of 0.46 nM.

The values are drawn from BindingDB's records for doi:10.1021/cb400100g (University of Massachusetts Medical School, 2013).
